Data on one compound can be found in PMC11992128, “Inhibition of Rho GEFs attenuates pulmonary fibrosis through suppressing myofibroblast activation and reprogramming profibrotic macrophages” (Cell Death & Disease, 2025).

In general, Kd refers to the free concentration of one partner at which half of the binding sites on the other are occupied at equilibrium, for simple one-to-one binding.

Assay [1] concerns the target T1, DH/PH domain of LARG (Leukemia-associated RhoGEF); ARHGEF12(765-1138aa) (Homo sapiens, UniProt Q9NZN5).
T1 construct: DH/PH domain; GST-ARHGEF12(765-1138aa) by lentivirus in NIH/3T3 for the cell tests
T1 sequence (Q9NZN5 765-1138): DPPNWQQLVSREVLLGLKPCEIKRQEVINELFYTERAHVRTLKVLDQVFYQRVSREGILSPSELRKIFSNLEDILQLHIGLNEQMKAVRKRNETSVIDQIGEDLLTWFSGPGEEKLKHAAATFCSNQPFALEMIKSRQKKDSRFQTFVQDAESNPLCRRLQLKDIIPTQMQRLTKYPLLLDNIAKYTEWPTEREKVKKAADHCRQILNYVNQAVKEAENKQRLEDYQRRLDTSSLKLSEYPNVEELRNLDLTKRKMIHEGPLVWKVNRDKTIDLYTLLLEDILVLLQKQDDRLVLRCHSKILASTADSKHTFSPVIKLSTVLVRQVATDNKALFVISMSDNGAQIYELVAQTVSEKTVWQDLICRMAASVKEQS
In words: CETSA, NIH/3T3 expressing the GST-tagged domain, Western blot. Format: cell-based. As to conditions: 75 μM GL-V9, 3 h. In general terms: In western blotting, separated proteins are transferred to a membrane and probed.

The target in assay [2] is T1, DH/PH domain of LARG (Leukemia-associated RhoGEF); ARHGEF12(765-1138aa). In words: surface plasmon resonance (Biacore S200, CM5 chip, immobilised protein). Format: binding. (In SPR one partner is held on a chip, and binding of the other changes the refractive index at the surface.)

`COc1c(OCCCCN2CCCC2)cc(O)c2c(=O)cc(-c3ccccc3)oc12` [GL-V9, 5-hydroxy-8-methoxy-2-phenyl-7-(4-(pyrrolidine-1-yl)butoxy) 4H-chromen-4-one]: the thermal stability entry in assay [1] is listed as “GL-V9 significantly enhanced the thermal stability of the wild-type DH/PH domain”. Moreover, the equilibrium dissociation constant (Kd) in assay [2] was 11.8 µM.
